Laboratory results published in patent US8470813B2, “Thiazoline and oxazoline derivatives and their methods of use” (AbbVie Inc., priority 2006, dated 2013).
pEC50: −log10 of the molar value.

Tests used:
[1] = target: T1, α7 nAChRs (Homo sapiens, UniProt P36544); experiment: High-throughput calcium flux (FLIPR) assay using IMR-32 cells expressing endogenous α7 nAChRs; type: cell-based
T1 construct: IMR-32 cells endogenous expressing α7 nAChRs; host or cells: IMR-32 neuroblastoma cells
Description: (i) High-Throughput Calcium Flux Assays Using Cells Expressing Endogenous α7 nAChRs
As such, positive allosteric modulators can be identified or nicotinic acetylcholine receptor agonists can be identified by using IMR-32 cells that endogenously express various nicotinic receptors including α7 nAChRs. […] Accordingly, allosteric modulator compounds described herein can be identified using fluorescence-based throughput functional assay using cell lines such as IMR-32 neuroblastoma or primary dissociated neurons. Although cell types such as IMR-32 neuroblastoma and neurons are known to contain several nicotinic receptor subunits, α7 selective agonists in the present assay selectively stimulate calcium responses only in the presence of positive allosteric modulators. Any suitable selective α7 agonist can be used.
IMR-32 neuroblastoma cells (ATCC) were grown to confluency in 162 cm^2 tissue culture flasks in minimum essential media supplemented with 10% FBS and 1 mM sodium pyruvate, 0.1 mM non-essential amino acids and 1% antibiotic-antimycotic. The cells were then dissociated using cell dissociation buffer and 40 μl of 3.5×10^5 cells/ml cell suspension was plated (15,000 cells/well) into black plates with clear bottom and maintained for 48 hours in a tissue culture incubator at 37° C. under an atmosphere of 5% CO2: 95% air. […] Calcium flux was measured using calcium-3 assay kit (Molecular Devices, Sunnyvale, Calif.) or fluo-4. A stock solution of the dye was prepared by dissolving each vial supplied by the vendor in Hank's balanced salt solution buffer (HBSS) containing 20 mM HEPES. The stock solution was diluted 1:20 using the same buffer before use. The growth media was removed from the cells and loaded with 45 μl of the dye and incubated at room temperature for three hours. Fluorescence measurements were read simultaneously from all the wells by a Fluorometic Imaging Plate Reader (FLIPR) at an excitation wavelength of 480 nm and an emission wavelength of 520 nm. Baseline fluorescence was measured for the first 10 seconds at which 5× concentrations of modulator/test compounds were added to the cell plate and incubated for three minutes. The fluorescence intensity was captured every second for the first 1 minute followed by every 5 seconds for an additional 2 minutes. This procedure was followed by 20 μl of 4× concentration of agonist and readings were taken for a period of three minutes as described above.

[2] = target: T2, α7 nAChRs (Rattus norvegicus, UniProt Q05941); experiment: High-throughput phospho-ERK assay (in-cell western) using PC-12 cells expressing endogenous α7 nAChRs; type: cell-based; conditions: in presence of selective α7 agonist, FIG. 4
T2 construct: cells expressing endogenous α7 nAChRs without the need for overexpressing recombinant receptors; host or cells: PC-12 rat pheochromocytoma cells
T2 sequence (Q05941 23-502): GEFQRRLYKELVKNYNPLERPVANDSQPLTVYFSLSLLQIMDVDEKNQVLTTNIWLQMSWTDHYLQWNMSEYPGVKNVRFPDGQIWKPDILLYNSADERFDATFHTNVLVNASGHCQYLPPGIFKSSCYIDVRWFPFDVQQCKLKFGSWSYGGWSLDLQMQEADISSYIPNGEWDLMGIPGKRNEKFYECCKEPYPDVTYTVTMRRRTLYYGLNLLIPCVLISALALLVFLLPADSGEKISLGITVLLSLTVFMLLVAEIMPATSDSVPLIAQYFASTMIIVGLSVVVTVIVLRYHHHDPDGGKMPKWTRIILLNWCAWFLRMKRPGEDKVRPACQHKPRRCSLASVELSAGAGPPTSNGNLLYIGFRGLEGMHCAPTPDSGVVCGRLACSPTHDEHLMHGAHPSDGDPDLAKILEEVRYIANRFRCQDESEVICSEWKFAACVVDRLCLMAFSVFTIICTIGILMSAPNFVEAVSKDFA
Experimental: To determine the effectiveness of compounds of formula (I) or (II), as allosteric modulators, the compounds of the invention were evaluated according to two high-throughput functional assays using (i) IMR-32 cells endogenous expressing α7 nAChRs and measuring Ca^2+ flux or membrane potential changes utilizing the fluorescence-imaging plate reader (FLIPR)-based assays and (ii) measurement of phospho-ERK activity using western blot assays. These assays allow for higher throughput screening of positive allosteric modulators using cells or cell lines expressing endogenous α7 nAChRs.
(ii) High-Throughput Phospho-Erk Assays Using Cells Expressing Endogenous α7 nAChRs
Rat pheochromocytoma (PC-12) cells (ATCC, Manassas, Va.) were cultured and maintained in F-12K media supplemented with 15% horse serum, 2.5% fetal calf serum, and 2 mM L-Glutamine in poly-D lysine coated dishes at 37° C. and 5% CO2. […]
PC-12 cells are treated for 10 minutes at 37° C. with test positive allosteric modulator compounds and then challenged with a selective α7 agonist for 5 minutes at 37° C. in a final volume of 100 μl/well, unless otherwise indicated. […] Well intensities were quantitated and phospho-ERK signals were normalized to total ERK signals by the Odyssey software. […]

T1 sequence (P36544 23-502): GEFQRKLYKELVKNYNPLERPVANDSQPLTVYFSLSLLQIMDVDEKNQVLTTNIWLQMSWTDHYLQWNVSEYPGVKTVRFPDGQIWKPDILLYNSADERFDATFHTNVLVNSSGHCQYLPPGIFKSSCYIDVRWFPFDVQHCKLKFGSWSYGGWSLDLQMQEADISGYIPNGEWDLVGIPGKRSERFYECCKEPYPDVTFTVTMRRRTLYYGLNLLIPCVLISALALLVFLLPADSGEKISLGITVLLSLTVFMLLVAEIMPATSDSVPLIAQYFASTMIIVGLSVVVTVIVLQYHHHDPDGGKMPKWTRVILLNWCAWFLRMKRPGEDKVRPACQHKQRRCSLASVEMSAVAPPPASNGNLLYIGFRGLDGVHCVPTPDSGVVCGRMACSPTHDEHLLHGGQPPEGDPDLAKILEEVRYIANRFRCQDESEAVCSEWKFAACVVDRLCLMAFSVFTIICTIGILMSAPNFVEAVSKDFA

## Cc1cn(-c2ccc3c(c2)OC(F)(F)O3)/c(=N/C(=O)N(C)C)s1 [Example 9, N′-[(2Z)-3-(2,2-difluoro-1,3-benzodioxol-5-yl)-5-methyl-1,3-thiazol-2(3H)-ylidene]-N,N-dimethylurea]
[1]; IMR-32 cells, Example 9 10 μM with agonist 4-(5-phenyl-[1,3,4]oxadiazol-2-yl)-1,4-diaza-bicyclo[3.2.2]nonane, FIG. 1
  calcium fluorescence response, modulator co-applied with agonist: evoked calcium fluorescence response
[1]; IMR-32 cells, absence of α7 nAChR agonist, FIG. 2
  calcium response, modulator alone: did not trigger calcium responses
[1]; IMR-32 neuroblastoma cells, in presence of agonist 4-(5-phenyl-[1,3,4]oxadiazol-2-yl)-1,4-diaza-bicyclo[3.2.2]nonane, FIG. 2, read-out: EC50 value of the modulator (calcium fluorescence response)
  pEC50: 5.52
[2]
  ERK phosphorylation, concentration-response: evoke concentration-dependent increases in ERK phosphorylation

## CCN1C[C@]2(COC(=O)c3ccccc3N3C(=O)C[C@H](C)C3=O)CC[C@H](OC)[C@@]34[C@@H]5C[C@H]6[C@H](OC)[C@@H]5[C@](O)(C[C@@H]6OC)[C@@](O)([C@@H](OC)[C@H]23)[C@@H]14 [methyllycaconitine, reference compound]
[1]; IMR-32 cells
  effect of α7 selective antagonist on agonist plus modulator calcium response: abolishes response

## c1ccc(-c2nnc(N3CCN4CCC3CC4)o2)cc1 [4-(5-Phenyl-[1,3,4]oxadiazol-2-yl)-1,4-diaza-bicyclo[3.2.2]nonane, reference compound]
[1]; IMR-32 cells, absence of allosteric modulator, FIG. 3
  calcium response, agonist alone: did not trigger calcium responses
